Tested on: fresh pieces of apple (variety: Mutsu)
Assay: Ethylene concentration lowering effect for apple (ethylene in hermetically closed jar, tubular gas detector)
Conditions: 23° C.
[1] = Table 9, single substances 3 g, mixtures 1.5 g + 1.5 g, 20 g apple
[2] = Table 2, vs. mixing ratio, 3 g agent per 20 g apple
[3] = Table 10, vs. mixing ratio, 3 g agent per 20 g apple
[4] = Table 1, 20 g apple pieces in closed 150-mL jar, 3 g agent

Experimental: Mouths of those jars were then hermetically closed with “[sequence]” (trademark; product of American National Can Company). Those jars were left over at 23° C., and on DAY 1, DAY 3 and DAY 6, the concentrations of ethylene in the respective jars were measured by a tubular gas detector (manufactured by Gastec, Inc.). The concentration of ethylene in a jar with “KIMWIPE” alone hermetically placed therein was also measured as a control.
Mouths of those jars were then hermetically closed with “[sequence]”. Those jars were left over at 23° C., and on DAY 1, DAY 3 and DAY 6, the concentrations of ethylene in the respective jars were measured by the tubular gas detector (manufactured by Gastec, Inc.). The concentration of ethylene in a jar with “KIMWIPE” alone hermetically placed therein was also measured as a control.
In 150-mL jars with 20 g per jar of fresh pieces of apple (variety: Mutsu) placed therein, portions (0.5 to 3 g) of a freshness-retaining agent [cinnamic acid:sodium hydrogen-carbonate=1:2 (by weight)] according to the present invention—all of which were individually wrapped with “KIMWIPE” (trademark for laboratory paper produced by Jujo-Kimberly Co., Ltd.)—were placed, respectively. Mouths of those jars were then hermetically closed with “[sequence]”. Those jars were left over at 23° C., and on DAY 1 and DAY 3, the concentrations of ethylene in the respective jars were measured by the tubular gas detector (manufactured by Gastec, Inc.). The concentration of ethylene in a jar with “KIMWIPE” alone hermetically placed therein was also measured as a control.
In 150-mL jars with 20 g per jar of fresh pieces of apple (variety: Mutsu) placed therein, three freshness-retaining agents according to the present invention [1:3 (by molar ratio) mixtures of cinnamic acid and hydrogencarbonates]—all of which were individually wrapped with “KIMWIPE” (trademark for laboratory paper produced by Jujo-Kimberly Co., Ltd.)—were placed, respectively. Mouths of those jars were then hermetically closed with “[sequence]”. Those jars were left over at 23° C., and on DAY 1 and DAY 3, the concentrations of ethylene in the respective jars were measured by the tubular gas detector (manufactured by Gastec, Inc.). The concentration of ethylene in a jar with “KIMWIPE” alone hermetically placed therein was also measured as a control.
Mouths of those jars were then hermetically closed with “[sequence]”.

| SMILES | Concentration of ethylene DAY 1 [1] [ppm] | Concentration of ethylene DAY 3 [1] [ppm] | Concentration of ethylene DAY 1 [2] [ppm] | Concentration of ethylene DAY 3 [2] [ppm] | Concentration of ethylene DAY 6 [2] [ppm] | Concentration of ethylene DAY 1 [3] [ppm] | Concentration of ethylene DAY 3 [3] [ppm] | Concentration of ethylene DAY 6 [3] [ppm] | Concentration of ethylene DAY 1 [4] [ppm] | Concentration of ethylene DAY 2 (Table 1, DAY 2, 20 g apple pieces in closed 150-mL jar, 3 g agent) [ppm] | Concentration of ethylene DAY 6 [4] [ppm] |
| --- | --- | --- | --- | --- | --- | --- | --- | --- | --- | --- | --- |
| O=C(O)CC(O)(CC(=O)O)C(=O)O [Citric acid, citric acid] | 275 | 125 | – | – | – | – | – | – | – | – | – |
| O=C([O-])CC(O)(CC(=O)[O-])C(=O)O.[Na+].[Na+] [Disodium citrate, disodium citrate] | 250 | 150 | – | – | – | – | – | – | – | – | – |
| O=C([O-])CC(O)(CC(=O)O)C(=O)O.[Na+] [Monosodium citrate, monosodium citrate] | 250 | 125 | – | – | – | – | – | – | – | – | – |
| O=C([O-])O.[Na+] [Sodium hydrogencarbonate, sodium hydrogencarbonate] | 275 | 150 | 50 | 75 | 125 | 275 | 150 | 150 | – | – | – |
| O=C(O)C=Cc1ccccc1 [Cinnamic acid, cinnamic acid] | – | – | 38 | 50 | 50 | – | – | – | 100 | 100 | 100 |

— patent US6340654B1, “Freshness-retaining agent and method for agricultural/horticultural products” (priority 1999, dated 2002)
